The record followed here is PMC7002704, “Inhibitory effect of Citrus flavonoids on the in vitro transport activity of human urate transporter 1 (URAT1/SLC22A12), a renal re-absorber of urate” (NPJ Science of Food, 2020).

The target of experiment [1] is T1, urate transporter 1 (URAT1/SLC22A12) (Homo sapiens, UniProt Q96S37).
T1 sequence (Q96S37 1-553): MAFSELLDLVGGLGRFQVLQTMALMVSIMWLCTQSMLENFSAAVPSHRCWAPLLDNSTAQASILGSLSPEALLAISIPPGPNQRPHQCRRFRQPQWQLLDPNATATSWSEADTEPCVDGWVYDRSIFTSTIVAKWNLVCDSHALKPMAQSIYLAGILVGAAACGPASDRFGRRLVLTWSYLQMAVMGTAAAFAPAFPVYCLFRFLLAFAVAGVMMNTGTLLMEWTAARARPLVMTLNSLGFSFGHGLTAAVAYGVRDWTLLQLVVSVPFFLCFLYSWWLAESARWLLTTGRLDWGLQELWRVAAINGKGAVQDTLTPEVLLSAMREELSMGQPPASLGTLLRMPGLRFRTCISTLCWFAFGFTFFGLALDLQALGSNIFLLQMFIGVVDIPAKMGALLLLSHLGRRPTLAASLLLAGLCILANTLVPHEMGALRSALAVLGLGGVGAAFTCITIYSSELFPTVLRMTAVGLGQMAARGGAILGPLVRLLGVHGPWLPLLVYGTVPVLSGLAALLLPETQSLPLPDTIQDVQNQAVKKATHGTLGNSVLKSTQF

For experiment [2], the target named is T1, urate transporter 1 (URAT1/SLC22A12). Nature of the experiment: [[…]-14C]-urate uptake inhibition in URAT1-expressing […] cells. The experiment is classed as cell-based. More on the design: EGFP-tagged URAT1 wild type (pEGFP-C1).

Read-outs that look alike come from different tables or passages of the source.

`CCc1oc2ccccc2c1C(=O)c1cc(Br)c(O)c(Br)c1` [benzbromarone]: the “% inhibition at 10 μM” value in experiment [1] is 96.
In general, IC50 refers to the midpoint of a concentration-inhibition curve. In experiment [2], `COc1ccc([C@@H]2CC(=O)c3c(O)cc(O)cc3O2)cc1O` [hesperetin] had an IC50 of 25.7 µM.
Still for that read-out and setting: the figure for `O=C1C[C@@H](c2ccc(O)cc2)Oc2cc(O)cc(O)c21` [naringenin] is 16.1 µM.
Turning to `COc1ccc(-c2cc(=O)c3c(OC)c(OC)c(OC)c(OC)c3o2)cc1OC` [nobiletin], the half-maximal inhibitory concentration (IC50) in experiment [2] (read-out: IC50) is 17.6 µM.
